Data from ChEMBL document CHEMBL1201862, “PubChem BioAssay data set” (2004).
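In this assay, cells in 96-well plates receive the compound at five concentrations for 48 hours. Endpoints are linearly interpolated between the surrounding concentrations. At the GI50, growth is halved.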 The source made the active and inactive calls. Rule as the data show it: active = GI50 up to about 1.1 µM and inactive = higher.

How the values were obtained:
Assay in all cases: NCI anticancer screen, dose series, 48 h
[1] = system: KM-20L2
[2] = system: M19-MEL
[3] = system: RXF 631
[4] = system: SNB-78
[5] = system: DLD-1
[6] = system: DMS-273
[7] = system: XF498
[8] = system: HOP-18
[9] = system: BT-549

Measured: GI50

CC(=O)OCC1OC(OCc2ccccc2)C(Br)C(OC(C)=O)C1OC(C)=O (centres undefined)
inactive: [1] > 100 µM | [2] > 100 µM | [3] > 100 µM | [4] > 100 µM | [5] > 100 µM | [6] > 100 µM | [7] > 100 µM | [8] > 100 µM

COC(=O)C(C)(C)/N=C/N(C)C
inactive: [1] > 100 µM | [2] > 100 µM | [3] > 100 µM | [4] > 100 µM | [5] > 100 µM | [6] > 100 µM | [7] > 100 µM | [8] > 100 µM

CC1=C(C(=O)Nc2ccccc2C)C(c2ccc([N+](=O)[O-])cc2)C(C(=O)Nc2ccccc2C)=C(C)N1
inactive: [1] 51.9 µM | [2] 64.1 µM | [3] 76.6 µM | [5] 50 µM | [6] 43.4 µM | [7] 40.3 µM | [8] 55.2 µM

CCOC1(COP(=O)(OCc2ccccc2)OCc2ccccc2)COC(COP(=O)(OCc2ccccc2)OCc2ccccc2)(OCC)CO1 (centres undefined)
inactive: [1] > 100 µM | [2] 15.5 µM | [3] 9.44 µM | [4] > 100 µM | [5] > 100 µM | [6] > 100 µM | [7] > 100 µM | [8] > 100 µM

Cc1cnoc1/N=C1\C=C(Nc2oncc2C)C(=O)c2ccccc21
inactive: [1] > 100 µM | [3] > 100 µM | [4] > 100 µM | [5] > 100 µM | [6] > 100 µM | [7] > 100 µM | [8] > 100 µM

CCOC(=O)C1=C(C)N(c2ccccc2)C2=C(C(=O)N(c3ccccc3)C2c2ccccc2)C1c1ccccc1 (centres undefined)
inactive: [1] > 100 µM | [2] > 100 µM | [3] > 100 µM | [4] > 100 µM | [5] > 100 µM | [6] > 100 µM | [7] > 100 µM | [8] > 100 µM

CC(=O)C1CC=C(C)CC1 (centres undefined)
inactive: [1] > 100 µM | [2] > 100 µM | [3] > 100 µM | [4] > 100 µM | [5] > 100 µM | [6] > 100 µM | [7] > 100 µM | [8] > 100 µM

CC(=O)CC(=O)CCCC(=O)Nc1ccc(Cl)cc1Cl
inactive: [1] > 100 µM | [3] > 100 µM | [5] > 100 µM | [6] > 100 µM | [7] > 100 µM | [8] 25.2 µM

COc1cccc(/C=C2\CCC(CN(C)C)C2=O)c1 (centres undefined)
inactive: [1] 15.8 µM | [2] 4.84 µM | [3] 6.59 µM | [9] 3.91 µM | [4] 21.7 µM | [5] 2.8 µM | [6] 12.2 µM | [7] 18.9 µM | [8] 18.6 µM

O=C(Nc1nc2ccc([N+](=O)[O-])cc2s1)C(=O)C(C(=O)c1ccncc1)C1OC(=O)c2ccccc21 (centres undefined)
inactive: [1] > 100 µM | [2] > 100 µM | [3] > 100 µM | [4] > 100 µM | [5] > 100 µM | [6] > 100 µM | [7] > 100 µM | [8] 42.7 µM

COc1cc([C@@H]2OC(=O)C3C2C(=O)O[C@H]3c2cc(OC)c(OC)c(OC)c2)cc(OC)c1OC (some centres undefined)
inactive: [1] > 100 µM | [2] > 100 µM | [3] > 100 µM | [4] > 100 µM | [6] > 100 µM | [7] 6.08 µM | [8] > 100 µM
